Measured values reported in publication PMC7698860, “Discovery and Design of Novel Small Molecule GSK-3 Inhibitors Targeting the Substrate Binding Site” (International Journal of Molecular Sciences, 2020).
One block for each compound: values may come before it.

Legend:
[1] = tested on: Mouse hippocampal primary neurons; assay: β-catenin immunostaining in hippocampal primary neurons; assay type: cell-based; settings: 4-4 5 μM, CHIR99021 10 μM, 4 h
Protocol: Hippocampi were isolated from C57BL6/J mice (0–1 day old), and tissues were digested with trypsin type XI (Sigma, Rehovot, Israel, Cat # T1005), and DNase type IV (Sigma, cat #D5025). Cells were suspended in a plating medium including MEM supplemented with 10% FBS, transferrin (0.089 mg/m), GlutaMAX (0.75 U/mL) (Sigma, Cat # 35050-038), insulin (16 μM) (Roche, Basel, Switzerland, Cat # 45865100), and SM1 neuronal supplement (STEMCELL, Seattle, WA, USA, Cat # 05711), and plated on glass coverslips coated with Matrigel (Corning, NY, USA, Cat# 356234) in a 24-well plate. […]
Primary neuron cells were treated with 4-4 (5 μM), CHIR99021 (10 μM) (Merck, MA, USA), or, vehicle (DMSO/1%Tween 80) for 4 hr. Cells were fixed with 4% PFA and immunostained with anti-βcatenin and anti-MAP2 (Sypnactic System, Goettingen, Germany, A neuronal marker) antibodies. βcatenin signal was evaluated by Image J software using co-localization finder plugin (https://imagej.nih.gov/ij/plugins/colocalization-finder.html) that calculated the ratio of βcatenin over MAP2 and DAPI in each cell. The average ratio that was determined for control vehicle-treated cells was set to 1 and respective folds of treated cells were calculated accordingly.

GSK-3β [2] = biological target: T1, GSK-3β (Oryctolagus cuniculus, UniProt A0A5F9DUX8); assay: In vitro GSK-3β kinase assay (ELISA-based, IRS-1 peptide substrate); assay type: biochemical, rabbit; settings: for IC50: GSK-3β inhibition, 10 μM ATP; for IC50 / GSK-3β inhibition (in words): in vitro kinase assay; for GSK-3β inhibition (in words): screening hits; for Effect of Triton ×100 on inhibition of GSK-3β: 20 μM, 0.05% Triton ×100 (colloidal aggregation control)
Protocol: (§1) An ELISA-based assay was developed in our laboratory to measure GSK-3 activity. In brief, biotin-labelled IRS-1 peptide substrate was bound to streptavidin-coated 96-well microplates. A GSK-3 assay solution (0.1 μg GSK-3β, 20 mM Tris (pH 7.3), 10 mM MgCl2, and 10 μM ATP) was added to each well, together with the candidate compound at indicated concentrations, and the plates were incubated for 15 min at 30 °C. After having been washed (PBS 0.05% tween), the plates were incubated with a specific anti-phospho IRS-1 antibody (Ser^332) (1:2000), followed by HRP-secondary antibody (1:8000). The signal was developed with TMB solution (abcam, Cambridge UK, Cat# ab210902), stopped with H2SO4, and monitored in a plate reader ([…]). Assays were conducted in duplicates in three independent experiments. In the ATP competitive, or, substrate competitive assays, the assays (60 μL) were performed in Eppendorf tubes (to use “unbound” substrate), and 10–20 μL were spotted on the streptavidin-coated plates. Km values were calculated from the non-linear curve fit, and Ki values were calculated by Kapp = Km (1 + [I]/Ki). Bacterially expressed His-tagged rabbit GSK-3β was purified as described, and purified human GSK-3α was purchased from abcam (Cat# ab42597). The selectivity of compound 4-4 against a collection of protein kinases was assayed at the International Center for Kinase Profiling at the MRC unit, University of Dundee, UK.

GSK-3β [3] = biological target: T1, GSK-3β; assay: Michaelis Menten ATP competitive and substrate competitive assays; assay type: biochemical, rabbit; settings: Lineweaver-Burk plots; for Mode of inhibition versus substrate: lines intersect at the Y-axis
Protocol: We next performed Michaelis Menten competitive assays to examine the ability of 4-3 or 4-4 to compete with ATP or with substrates. […] Subsequently, Michaelis Menten substrate competitive assays were performed and data were analyzed by Lineweaver–Burk plots (Figure 6B). […] The calculated ki values were 7.7 ± 3 and 7.0 ± 0.2 for 4-3 and 4-4 respectively. […] While most of our experiments concentrated on GSK-3β, we also tested the inhibition of GSK-3α by compounds 4-1 through 4-5. […] Inhibition of GSK-3β by 4-3 or 4-4 was not affected by the detergent (Figure 6E). As a final caveat, we evaluated the selectivity of our leading compound 4-4.
as §1

GSK-3β-F93A mutant = assay: In vitro kinase assay with GSK-3β-F93A mutant; assay type: biochemical
Description: To further confirm that compounds interact with the GSK-3β substrate binding site, we performed in vitro kinase assays with the GSK-3β-F93A mutant in which Phe 93 was replaced by alanine. […] This, in contrast, to SB216763, an established GSK-3 ATP competitive inhibitor [46] that inhibited both wild-type (WT) and the F93A mutant (Figure 3B).
as §1

SH-SY5Y cells = assay: Cytoplasmic β-catenin levels in SH-SY5Y cells (immunoblot); assay type: cell-based, human; settings: 4 h
Protocol: To verify the potential biological activity of our SCI compounds, we tested their ability to inhibit cellular GSK-3. We focused on the SCI compound 4-4 that was the best inhibitor of the five molecules that were tested (4-1–4-5) β-catenin, which is a central Wnt signaling component, and a well-established GSK-3 target. β-catenin phosphorylation by GSK-3 triggers its rapid proteasomal degradation. We, therefore, studied potential alterations in β-catenin levels following treatment with 4-4. Human neuroblastoma SH-SY5Y cells were treated with increasing concentrations of 4-4, and the levels of β-catenin were determined in the cytoplasmic fraction (prepared after cell permeabilization and sup collection), this to avoid possible “masking” of membrane-associated β-catenin. […]
(§2) Equal amounts of proteins (30–50 μg) were subjected to SDS PHAGE gel electrophoresis, transferred to nitrocellulose membranes, and immunoblotted with selected antibodies followed by incubation with HRP-linked anti-rabbit, or, anti-mouse IgG (Cell signaling, MA, USA, and Jackson Immune Research, PA, USA, respectively). ECL developed membranes were imaged in UVITEC Alliance biomolecular imaging, and densitometry analysis of respected bands was analyzed with software provided by the vendor. […]

[4] = tested on: Mouse hippocampal primary neurons; assay: Tau (Ser 396) phosphorylation in hippocampal primary neurons (immunoblot); assay type: cell-based; settings: 20 μM, 4 h
Protocol: Hippocampi were isolated from C57BL6/J mice (0–1 day old), and tissues were digested with trypsin type XI (Sigma, Rehovot, Israel, Cat # T1005), and DNase type IV (Sigma, cat #D5025). Cells were suspended in a plating medium including MEM supplemented with 10% FBS, transferrin (0.089 mg/m), GlutaMAX (0.75 U/mL) (Sigma, Cat # 35050-038), insulin (16 μM) (Roche, Basel, Switzerland, Cat # 45865100), and SM1 neuronal supplement (STEMCELL, Seattle, WA, USA, Cat # 05711), and plated on glass coverslips coated with Matrigel (Corning, NY, USA, Cat# 356234) in a 24-well plate. The day after plating and twice a week thereafter half of the medium was removed and was replaced with by fresh feeding medium (plating medium lacking insulin and containing Ara-C (3 μM)) (Sigma, Cat# C6645).
as §2, with “vendor. Representative protein bands were taken from the same gel, and each gel represents three independent experiments.” for “vendor.”

30 protein kinases = assay: Selectivity against a collection of protein kinases (International Center for Kinase Profiling, Dundee); assay type: biochemical; settings: 10 μM
Protocol: An ELISA-based assay was developed in our laboratory to measure GSK-3 activity. In brief, biotin-labelled IRS-1 peptide substrate was bound to streptavidin-coated 96-well microplates. A GSK-3 assay solution (0.1 μg GSK-3β, 20 mM Tris (pH 7.3), 10 mM MgCl2, and 10 μM ATP) was added to each well, together with the candidate compound at indicated concentrations, and the plates were incubated for 15 min at 30 °C. After having been washed (PBS 0.05% tween), the plates were incubated with a specific anti-phospho IRS-1 antibody (Ser^332) (1:2000), followed by HRP-secondary antibody (1:8000). The signal was developed with TMB solution (abcam, Cambridge UK, Cat# ab210902), stopped with H2SO4, and monitored in a plate reader ([…]). Assays were conducted in duplicates in three independent experiments. In the ATP competitive, or, substrate competitive assays, the assays (60 μL) were performed in Eppendorf tubes (to use “unbound” substrate), and 10–20 μL were spotted on the streptavidin-coated plates. Km values were calculated from the non-linear curve fit, and Ki values were calculated by Kapp = Km (1 + [I]/Ki). Bacterially expressed His-tagged rabbit GSK-3β was purified as described, and purified human GSK-3α was purchased from abcam (Cat# ab42597). […]

T1 sequence (A0A5F9DUX8 entry or part of it): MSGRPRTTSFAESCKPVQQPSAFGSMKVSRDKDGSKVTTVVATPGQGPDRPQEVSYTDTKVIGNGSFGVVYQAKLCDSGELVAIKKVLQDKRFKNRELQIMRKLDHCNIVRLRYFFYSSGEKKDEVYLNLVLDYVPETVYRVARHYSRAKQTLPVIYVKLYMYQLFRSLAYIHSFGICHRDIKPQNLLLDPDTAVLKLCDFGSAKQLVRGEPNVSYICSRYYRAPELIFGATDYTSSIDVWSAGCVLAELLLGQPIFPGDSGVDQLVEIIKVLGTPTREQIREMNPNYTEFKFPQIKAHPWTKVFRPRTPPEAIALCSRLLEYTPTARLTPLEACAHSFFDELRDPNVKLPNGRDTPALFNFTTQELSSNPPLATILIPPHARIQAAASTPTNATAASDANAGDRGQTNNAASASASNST

Compound: Cc1c[nH]c(-c2cnc(NCCNc3ccc(C#N)cn3)nc2-c2ccc(Cl)cc2Cl)n1 [CHIR9920, reference compound]
β-catenin levels in soma and dendrites of neurons [1]: significant increase

Compound: Cc1sc2nc3c(SC(C)C(=O)O)cc(C(=O)c4ccccc4O)cn3c(=O)c2c1C (stereo not shown) [Compound 1-6]
IC50 (GSK-3β [2]): 200 ± 30 µM

Compound: O=C(O)CCCNc1cc(N2CCN(c3ccc(F)cc3)CC2)c2noc3c2c1C(=O)c1ccccc1-3 [Compound 2-1]
GSK-3β inhibition (in words) (GSK-3β [2]): best GSK-3β inhibitors

Compound: O=C(O)CCNc1cc(N2CCN(c3ccc(F)cc3)CC2)c2noc3c2c1C(=O)c1ccccc1-3 [Compound 3-8]
IC50 (GSK-3β [2]): 8 ± 3 µM

Compound: O=C(O)CNc1cc(N2CCC(c3ccccc3)CC2)c2noc3c2c1C(=O)c1ccccc1-3 [Compound 3-9]
IC50 (GSK-3β [2]): > 21 µM

Compound: O=C(O)c1ccc(N2CCN(c3cc(NCCP(=O)(O)O)c4c5c(onc35)-c3ccccc3C4=O)CC2)cc1 [Compound 4-3]
Effect of Triton ×100 on inhibition of GSK-3β (GSK-3β [2]): not affected
IC50 (GSK-3β [2]): 1 to 4 µM
Mode of inhibition versus ATP (GSK-3β [3]): non-competitive inhibitors for ATP
Mode of inhibition versus substrate (GSK-3β [3]): substrate competitive inhibitors
Inhibition of F93A mutant (GSK-3β-F93A mutant; 20 μM each): did not inhibit

Compound: Cn1cc(C2=C(c3ccc(Cl)cc3Cl)C(=O)NC2=O)c2ccccc21 [SB216763, reference compound]
Inhibition of wild-type (WT) GSK-3β (GSK-3β [2]; 1 μM): inhibited
Inhibition of F93A mutant (GSK-3β-F93A mutant; 1 μM): inhibited

More lines, main results first:

IC50 (GSK-3β [2]): 180 ± 20 µM
Compound: O=C(O)CC1S/C(=N/N=C/c2cc(Br)ccc2OCc2ccc(Cl)cc2)NC1=O (stereo not shown) [Compound 1-7]

IC50 (GSK-3β [2]): 21 ± 4 µM
GSK-3β inhibition (in words) (GSK-3β [2]): best GSK-3β inhibitors
Compound: O=C(O)CCCNc1cc(N2CCN(C(=O)c3ccco3)CC2)c2noc3c2c1C(=O)c1ccccc1-3 [Compound 2-2]

IC50 (GSK-3β [2]): > 21 µM
Compound: O=C(O)CCNc1cc(N2CCN(C(=O)c3ccco3)CC2)c2noc3c2c1C(=O)c1ccccc1-3 [Compound 3-5]

IC50 (GSK-3β [2]): > 21 µM
Compound: CCOC(=O)C1CCCN(c2cc(Nc3ccc(C(=O)O)cc3)c3c4c(onc24)-c2ccccc2C3=O)C1 (stereo not shown) [Compound 3-13]

Effect of Triton ×100 on inhibition of GSK-3β (GSK-3β [2]): not affected
IC50 (GSK-3β [2]): 1 to 4 µM
Mode of inhibition versus ATP (GSK-3β [3]): non-competitive inhibitors for ATP
Mode of inhibition versus substrate (GSK-3β [3]): substrate competitive inhibitors
Inhibition of F93A mutant (GSK-3β-F93A mutant; 20 μM each): did not inhibit
Compound: O=C1c2ccccc2-c2onc3c(N4CCN(c5ccc(O)cc5)CC4)cc(NCCP(=O)(O)O)c1c23 [Compound 4-4]
β-catenin levels in soma and dendrites of neurons [1]: significant increase
Cytoplasmic β-catenin at higher doses (SH-SY5Y cells; 10 μM): reduction
Concentration sufficient to activate β-catenin in the cytoplasm (SH-SY5Y cells): 1 to 5 µM
Phosphorylation of tau (Ser 396) [4]: reduced
Selectivity over 30 protein kinases (30 protein kinases): showed specificity toward GSK-3α and GSK-3β

Inhibition of F93A mutant (GSK-3β-F93A mutant; 20 μM each): barely inhibited
Compound: KEAPPSPPQS(p)PF [Compound L803F, reference compound]
